Reference: patent US12599657B2 (priority 2020, dated 2026)
Like-named read-outs stand apart in the source and are kept apart here.

Assays:
[1] = tested on: E. acervulina, E. maxima, and E. tenella; test: First Study: broiler performance (feed intake, FCR, weight gain, mortality) under coccidia challenge; format: in vivo; conditions: Cocci Vaccine alone
Procedure: (§1) Testing in all three studies set forth below was undertaken using a high oocyst dose vaccine, Coccivac-B52 (trademark, Intervet Inc.), a product sold by Merck Animal Health. According to the manufacturer, Coccivac-B52 contains E. acervulina, E. maxima, E. mivati, and E. tenella. The vaccine was mixed with water at a dosage of 240 ml of water per 1,000 doses. The vaccine-water combination was placed in a sealed vaccine container and mixed by stirring and inversion of the container. The mixed vaccine-water combination was sprayed onto each chick when one day old in a conventional spray cabinet. It was estimated that each chick ingested an equal number of droplets so as to result in the ingestion of about 240 μL dose per chick.
The rations consisted of non-medicated commercial-type broiler starter, grower, and finisher diets compounded according to NRC guidelines and contained feedstuffs commonly used in the United States. As a common regime rations for some but not necessarily all studies were fed ad libitum from date of chick arrival as follows: Starter—DOT 0 until DOT 14, grower DOT 14 to DOT 28, and finisher from DOT 28 to DOT 42 (study termination).
Diets were fed as crumbles in starter and pellets in grower and finisher. Experimental treatment feeds were prepared from a basal feed formulation. Quantities of all basal feed and test articles included in treatment group batches were documented and included with source data files. Treatment feeds were mixed prior to pelleting to assure uniform distribution of respective test articles.
Fifteen hundred birds (1,500) were assigned to six (6) treatment groups with ten (10) replicate pens per treatment and 25 birds per pen. The study began when birds were placed (day-of-hatch; DOT 0), at which time birds were allocated to experimental pens. Only healthy birds were selected. On DOT 0, group body weights were recorded by pen. No birds were replaced during the course of the study.
Birds received treatment-appropriate feed from day 0 to day 42. On day 14, remaining starter feed was removed, weighed, and replaced with grower feed to day 28. On day 28, the remaining grower feed was removed, weighed back, and replaced with finisher feed to day 42.
On Day 42, the trial was terminated.

[2] = tested on: E. acervulina, E. maxima, and E. tenella; test: First Study: average coccidia lesion score; format: in vivo, broiler; conditions: DOT 26, Johnson and Reid 0 to 4 score, Salinomycin 60 gms/ton No Vaccine, Cocci Vaccine alone
[3] = tested on: E. acervulina, E. maxima, and E. tenella; test: First Study: total oocysts per gram of feces; format: in vivo, broiler; conditions: feces on DOT 26, Salinomycin 60 gms/ton No Vaccine, Cocci Vaccine alone
[4] = tested on: E. acervuline, E. maxima, and E. tenella; test: Third Study: broiler performance (feed intake, FCR, weight gain, mortality) under coccidia challenge; format: in vivo, male broiler chicks; conditions: Disclosed compound 1.0/1.0/0.5 lb/ton with Vacc
Procedure: as §1
Rations consisted of non-medicated commercial-type broiler starter, grower, and finisher diets compounded according to NRC guidelines and contain feedstuffs commonly used in the United States. Day-of-hatch male broiler chicks were utilized in the study. Rations were fed ad libitum from date of chick arrival as follows: Starter—day 0 until day 14, grower day 14 to day 28, and finisher from day 28 to day 42 (the end date of the study). Coccidia vaccination for treatments 4 and 5 only.
One thousand five hundred birds (1,500) were randomly assigned to 5 treatment groups with 12 replicate pens per treatment and 25 birds per pen. The study began when birds were placed (day-of-hatch; DAY 0), at which time birds were allocated to experimental pens. On day 0, group body weights were recorded by pen. No birds were replaced during the course of the study.
All birds were weighed by pen on days 0, 14, 28, and 42. Feed added to each pen's feeder was weighed at the beginning of each formulation period on day 0 (starter), day 14 (grower), and day 28 (finisher). Feed was distributed as needed to feeders from pre-weighed bags assigned to each pen throughout each period. Feed remaining in feeders was weighed and disposed of on days 14, 28, and 42. The trial was terminated on day 42.

[5] = tested on: E. acervulina, E. maxima, and E. tenella; test: Third Study: average coccidia lesion score; format: in vivo, male broiler chicks; conditions: Day 26, 0 to 4 score, Salinomycin 60 g/ton No Vacc, Disclosed compound 1.0/1.0/0.5 lb/ton with Vacc
[6] = tested on: E. acervulina, E. maxima, and E. tenella; test: Third Study: total oocysts per gram of feces; format: in vivo, male broiler chicks
E. acervulina [7] = conditions: First Study; DOT 26; Johnson and Reid 0 to 4 score; Salinomycin 60 gms/ton No Vaccine; Cocci Vaccine alone
E. maxima [8] = conditions: First Study; DOT 26; Johnson and Reid 0 to 4 score; Salinomycin 60 gms/ton No Vaccine; Cocci Vaccine alone
E. tenella [9] = conditions: First Study; DOT 26; Johnson and Reid 0 to 4 score; Salinomycin 60 gms/ton No Vaccine; Cocci Vaccine alone
E. acervulina [10] = conditions: First Study; feces on DOT 26; Salinomycin 60 gms/ton No Vaccine; Cocci Vaccine alone
E. maxima [11] = conditions: First Study; feces on DOT 26; Salinomycin 60 gms/ton No Vaccine; Cocci Vaccine alone
E. tenella [12] = conditions: First Study; feces on DOT 26; Salinomycin 60 gms/ton No Vaccine; Cocci Vaccine alone
E. acervulina [13] = conditions: Third Study; Day 26; 0 to 4 score; Salinomycin 60 g/ton No Vacc; Disclosed compound 1.0/1.0/0.5 lb/ton with Vacc
E. maxima [14] = conditions: Third Study; Day 26; 0 to 4 score; Salinomycin 60 g/ton No Vacc; Disclosed compound 1.0/1.0/0.5 lb/ton with Vacc
E. tenella [15] = conditions: Third Study; Day 26; 0 to 4 score; Salinomycin 60 g/ton No Vacc; Disclosed compound 1.0/1.0/0.5 lb/ton with Vacc
E. acervulina [16] = conditions: Third Study; feces Day 26; Salinomycin 60 g/ton No Vacc; Disclosed compound 1.0/1.0/0.5 lb/ton with Vacc
E. maxima [17] = conditions: Third Study; feces Day 26; Salinomycin 60 g/ton No Vacc; Disclosed compound 1.0/1.0/0.5 lb/ton with Vacc
E. tenella [18] = conditions: Third Study; feces Day 26; Salinomycin 60 g/ton No Vacc; Disclosed compound 1.0/1.0/0.5 lb/ton with Vacc
[19] = tested on: E. acervuline, E. maxima, and E. tenella; test: Third Study: broiler performance (feed intake, FCR, weight gain, mortality) under coccidia challenge; format: in vivo, male broiler chicks; conditions: Day 0 to 41, challenge day 21, Salinomycin 60 g/ton No Vacc, Disclosed compound 1.0/1.0/0.5 lb/ton with Vacc
[20] = Day 0 to 14, cocci challenge Day 20, Salinomycin 60 gms/ton No Vaccine
[21] = Day 0 to 28, cocci challenge Day 20, Salinomycin 60 gms/ton No Vaccine
[22] = Day 0 to 42, cocci challenge Day 20, Salinomycin 60 gms/ton No Vaccine
[23] = Day 0 to 14, challenge day 21, Salinomycin 60 g/ton No Vacc
[24] = Day 0 to 28, challenge day 21, Salinomycin 60 g/ton No Vacc

## CC[C@@H](C(=O)[C@@H](C)[C@@H](O)[C@H](C)[C@@H]1O[C@@H]([C@@H](CC)C(=O)O)CC[C@@H]1C)[C@H]1O[C@]2(C=C[C@@H](O)[C@]3(CC[C@@](C)([C@H]4CC[C@](O)(CC)[C@H](C)O4)O3)O2)[C@H](C)C[C@@H]1C [Salinomycin]
[1]; [20]
  Adjusted FCR (feed conversion ratio adjusted for mortality): 1.58A
  Feed Intake: 11.48A
  Non-Adjusted FCR: 1.60A
  Weight Gain: 0.31B kg
[1]; [21]
  Adjusted FCR (feed conversion ratio adjusted for mortality): 1.64B
  Feed Intake: 38.69C
  Non-Adjusted FCR: 1.78AB
  Weight Gain: 1.01B kg
[1]; [22]
  Adjusted FCR (feed conversion ratio adjusted for mortality): 1.67B
  Cocci Percent Mortality: 8.40A Percent
  Feed Intake: 80.16B
  Non-Adjusted FCR: 1.81AB
  Percent Mortality: 18.00A Percent
  Weight Gain: 2.39AB kg
[2]
  Mean Coccidia Lesion Score, Average: 1.97BC
[3]
  Total OPG: 52866AB oocysts per gram
[4]; [23]
  Adjusted FCR (FCR adjusted for mortality): 1.41A
  Feed Intake: 12.09A
  Non-Adjusted FCR: 1.42A
  Weight Gain: 0.34B kg
[4]; [24]
  Adjusted FCR (FCR adjusted for mortality): 1.50AB
  Feed Intake: 44.75B
  Non-Adjusted FCR: 1.51B
  Weight Gain: 1.20B kg
[5]
  Mean Coccidia Lesion Score, Average: 2.04AB
[6]; day of feces collection (day 27)
  count of oocysts among groups: highest count of oocysts
[6]; feces Day 26, Salinomycin 60 g/ton No Vacc, Disclosed compound 1.0/1.0/0.5 lb/ton with Vacc
  Total OPG: 55,117A oocysts per gram
E. acervulina [7]
  Mean Coccidia Lesion Score, E. acervulina: 1.80BC
E. maxima [8]
  Mean Coccidia Lesion Score, E. maxima: 1.93A
E. tenella [9]
  Mean Coccidia Lesion Score, E. tenella: 2.17AB
E. acervulina [10]
  OPG A: 49418AB oocysts per gram
E. maxima [11]
  OPG M: 2615A oocysts per gram
E. tenella [12]
  OPG T: 834A oocysts per gram
E. acervulina [13]
  Mean Coccidia Lesion Score, E. acervulina: 2.31A
E. maxima [14]
  Mean Coccidia Lesion Score, E. maxima: 1.78AB
E. tenella [15]
  Mean Coccidia Lesion Score, E. tenella: 2.03AB
E. acervulina [16]
  OPG A: 23,995A oocysts per gram
E. maxima [17]
  OPG M: 9,666A oocysts per gram
E. tenella [18]
  OPG T: 21,455A oocysts per gram
[19]
  Adjusted FCR (FCR adjusted for mortality): 1.60AB
  Cocci Percent Mortality: 0.00A Percent
  Feed Intake: 92.63B
  Non-Adjusted FCR: 1.61BC
  Percent Mortality: 1.33B Percent
  Weight Gain: 2.49BC kg
[19]; listed as salinomycin
  Percent Mortality: 1.33%
